Measurements taken from patent US20080219936A1, “Skin depigmenting compositions comprising adapalene, at least one depigmenting agent and at least one anti-inflammatory agent” (GALDERMA RESEARCH AND DEVELOPMENT, priority 2005, published 2008).

Legend:
tail of a mouse = assay: Inhibition of the induction of pigmentation by UV-B radiation in irradiated and treated mice; type: in vivo; details: lower dose (0.01%)
Text: Retinoic acid (tretinoin) is known to itself have a skin depigmenting activity (Guevara I. A. and Pandya A. G., Int. J. Dermatol., 40, 210-215 (2001)). […] Tretinoin is therefore a depigmenting agent in and of itself.

[1] = test system: natural pigmentation of the tail of an SKH:HR2 mouse; assay: Depigmenting activity on natural pigmentation, tail of non-irradiated SKH:HR2 mouse, 8 weeks; type: in vivo; details: topical in acetone 5 days a week for 8 weeks, 3% hydroquinone, 0.1% adapalene, alone or in combination
Method: The evaluation of the depigmenting and/or anti-pigmenting activity of 3% hydroquinone and of 0.1% adapalene, alone or in combination for 8 weeks, is carried out on the tail of an SKH:HR2 mouse irradiated with ultraviolet B radiation, or not irradiated.
The treatment is carried out 5 days a week for 8 weeks. 20 μl of test product diluted in acetone are applied to the tail with a gap from applications: the hydroquinone is applied in the morning and the adapalene 4 h later.
−1: slight depigmentation
−2: moderate depigmentation
−3: marked depigmentation
−4: complete depigmentation

[2] = test system: UV-induced pigmentation of the tail of an SKH:HR2 mouse; details: UV-B 90 mJ/cm^2 3 times a week; topical in acetone 5 days a week for 8 weeks; 3% hydroquinone, 0.1% adapalene
Method: The tail of the SKH:HR2 mouse is naturally pigmented and this pigmentation increases under the effect of repeated UV-B irradiation. The depigmenting activity is measured on the natural pigmentation after application of the test product to the tail of non-irradiated animals. The anti-pigmenting activity is measured by the inhibition of the induction of the UV-induced pigmentation: the test product is applied to the tail of UV-B-irradiated animals.
The treatment is carried out 5 days a week for 8 weeks. […] On the days of irradiation, the treatment is applied after irradiation.
The animals are irradiated 3 times a week for 8 weeks (Monday, Wednesday, Friday) at the dose of 90 mJ/cm^2 of UV-B.
The pigmentation is evaluated once a week before irradiation, by means of a score on a scale of 0 to 4. The scores are divided as follows: Depigmentation scale: scores −1 to −4.
Pigmentation scale: scores 1 to 4

Row | Compound | inhibition of the induction of pigmentation by UV-B radiation (tail of a mouse) | depigmenting activity (natural pigmentation score) [1] | anti-pigmenting activity (inhibition of pigmentation induced by UV-B irradiation) [2] | depigmenting activity (natural pigmentation score) ([1]; listed as Adapalene)
1 | CC1=C(/C=C/C(C)=C/C=C/C(C)=C/C(=O)O)C(C)(C)CCC1 [tretinoin, Retinoic acid] | no effect |  |  | 
2 | Oc1ccc(O)cc1 [hydroquinone] |  | induces a depigmentation | shows an anti-pigmenting effect at the 6th and at the 7th week (D50), which becomes less marked at the end of the study | 
3 | COc1ccc(-c2ccc3cc(C(=O)O)ccc3c2)cc1C12CC3CC(CC(C3)C1)C2 [adapalene, 6-[3-(1-adamantyl)-4-methoxyphenyl]-2-naphthanoic acid] |  | no depigmenting activity |  | does not modify the natural pigmentation
